We go through three compounds from patent publication US20160053120A1, “AZO DYE USED FOR A COLOR FILTER OF A LCD” (DOW GLOBAL TECHNOLOGIES LLC, priority 2013, published 2016).

Data set [1] can be described thus: Solubility in cyclohexanone at 25° C. It is filed as physicochemical.
Data set [2] in a line: Thermal stability of polymer film (ΔEab before and after hard baking at 200° C. for 1 hour). It is filed as physicochemical. The following applies: dye in acrylic resin film, baked at 200° C. under air for 1 hour; smaller ΔEab = better heat resistance. The protocol: The obtained dry film was baked at 200° C. under air for 1 hour to evaluate heat resistance. Optical performance measured by the difference between chromaticity coordinates of before and after baking (ΔEab value) was 4.9. A smaller ΔEab value indicates better heat resistance.
The wet films after spin coating are dried in oven at 80° C. for 30 minutes and then soft baked at 150° C. for 15 minutes. The chromaticity coordinates (L, a, b) are recorded with UltraScan Pro (Hunterlab) colorimeter. D65 light source is used and results are based on CIE Lab coordinates. After that the films are hard baked at target temperature (200° C.) for lhour and the new chromaticity coordinates (L′, a′, b′) are recorded with the method above. The thermal stability is indicated by the difference of chromaticity coordinate before and after hard baking represented by the following formula;
ΔE=√{square root over ((L−L′^2+(a−a′)^2+(b−b′)^2)}{square root over ((L−L′^2+(a−a′)^2+(b−b′)^2)}.

Consider `CC1=NN(c2ccccc2)C(=O)C1/N=N/c1ccccc1` (stereo not drawn) [Example 2, C.I. solvent yellow 16], for which the “Solubility in cyclohexanone at 25° C. (wt %)” value in data set [1] is 6.4 wt %. Moreover, the “Thermal stability at 200° C. (ΔEab)” value in data set [2] is on record as 43.
For the compound `Cc1ccccc1/N=N/c1ccc(/N=N/c2c(O)ccc3ccccc23)c(C)c1` [Example 3, C.I. solvent red 24], the “Solubility in cyclohexanone at 25° C. (wt %)” value in data set [1] came to 4.3 wt %. Besides, the “Thermal stability at 200° C. (ΔEab)” value in data set [2] came to 15.
On the same counts, the results for `Oc1ccc2ccccc2c1/N=N/c1ccccc1` [Example 4, C.I. solvent yellow 14] are 6.4 wt % and 64.
